Where two headings read alike, the source gives them in different places.
Assays:
[1] = target: NDM-1 (Klebsiella pneumoniae, UniProt C7C422); experiment: Inhibitory activity on MBL, fluorescent substrate FC-5; format: biochemical
[2] = target: NDM-5 (Klebsiella pneumoniae, UniProt C7C422, M154L/V88L); experiment: as above; format: biochemical
[3] = target: IMP-1 (Serratia marcescens, UniProt P52699); experiment: as above; format: biochemical
[4] = target: VIM-1 (Pseudomonas aeruginosa, UniProt A0A0F7KYQ8); experiment: as above; format: biochemical
[5] = target: VIM-2 (Escherichia coli, UniProt Q5U7L7); experiment: as above; format: biochemical
[6] = target: KPC-2 (Klebsiella pneumoniae, UniProt Q9F663); experiment: Inhibitory activity on SBL, fluorescent substrate FC-5; format: biochemical; conditions: for inhibitory activity on KPC-2 compared to avibactam: comparison in words
Chain of KPC-2 (Q9F663 25-293 limits assumed): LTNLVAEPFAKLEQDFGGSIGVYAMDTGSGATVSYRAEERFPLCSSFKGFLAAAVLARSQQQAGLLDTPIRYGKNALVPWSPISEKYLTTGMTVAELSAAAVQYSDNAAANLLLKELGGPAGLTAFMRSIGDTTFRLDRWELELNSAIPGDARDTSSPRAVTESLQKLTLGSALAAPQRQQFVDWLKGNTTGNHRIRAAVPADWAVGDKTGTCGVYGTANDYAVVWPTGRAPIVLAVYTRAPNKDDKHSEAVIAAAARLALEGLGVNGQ

[7] = target: TEM-1 (Escherichia coli, UniProt P62593); experiment: as above; format: biochemical; conditions: for inhibitory activity on TEM-1 compared to avibactam: comparison in words; for IC50: read-out: Inhibitory activity on SBL TEM-1 (IC50 class)
Chain of TEM-1 (P62593 24-286 limits assumed): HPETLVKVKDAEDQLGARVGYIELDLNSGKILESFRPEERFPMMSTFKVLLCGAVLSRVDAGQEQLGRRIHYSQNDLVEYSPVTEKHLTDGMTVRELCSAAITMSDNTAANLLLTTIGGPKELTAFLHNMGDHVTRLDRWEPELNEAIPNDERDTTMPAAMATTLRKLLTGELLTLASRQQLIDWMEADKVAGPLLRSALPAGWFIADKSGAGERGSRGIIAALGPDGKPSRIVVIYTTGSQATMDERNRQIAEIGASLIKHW

[8] = target: T1, SHV-12 (UniProt P0AD64, L31Q/G234S/E235K, species not given); experiment: as above; format: biochemical; conditions: for inhibitory activity on SHV-12 compared to control drugs: comparison in words
T1 sequence (P0AD64 1-286 L31Q/G234S/E235K): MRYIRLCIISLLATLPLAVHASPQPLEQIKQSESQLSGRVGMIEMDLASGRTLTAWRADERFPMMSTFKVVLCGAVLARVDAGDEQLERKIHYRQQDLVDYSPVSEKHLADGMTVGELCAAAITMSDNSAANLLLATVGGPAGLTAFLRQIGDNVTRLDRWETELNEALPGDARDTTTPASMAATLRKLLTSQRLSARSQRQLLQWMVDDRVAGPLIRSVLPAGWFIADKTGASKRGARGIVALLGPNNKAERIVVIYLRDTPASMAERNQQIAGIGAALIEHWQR

[9] = target: CTX-M-14 (Escherichia coli, UniProt Q9L5C7); experiment: as above; format: biochemical; conditions: for inhibitory activity on CTX-M-14 compared to avibactam: comparison in words
Chain of CTX-M-14 (Q9L5C7 entry or part of it): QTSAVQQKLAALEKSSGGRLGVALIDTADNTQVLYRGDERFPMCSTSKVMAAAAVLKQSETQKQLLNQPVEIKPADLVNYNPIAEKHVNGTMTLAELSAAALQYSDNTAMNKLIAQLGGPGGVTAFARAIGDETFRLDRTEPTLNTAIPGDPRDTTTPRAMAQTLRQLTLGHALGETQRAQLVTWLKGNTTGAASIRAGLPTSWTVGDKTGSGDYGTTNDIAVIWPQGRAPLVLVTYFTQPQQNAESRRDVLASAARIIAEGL

[10] = target: OXA-48 (Klebsiella pneumoniae, UniProt Q6XEC0); experiment: as above; format: biochemical; conditions: for inhibitory activity on OXA-48 compared to avibactam: comparison in words
Chain of OXA-48 (Q6XEC0 23-265 limits assumed): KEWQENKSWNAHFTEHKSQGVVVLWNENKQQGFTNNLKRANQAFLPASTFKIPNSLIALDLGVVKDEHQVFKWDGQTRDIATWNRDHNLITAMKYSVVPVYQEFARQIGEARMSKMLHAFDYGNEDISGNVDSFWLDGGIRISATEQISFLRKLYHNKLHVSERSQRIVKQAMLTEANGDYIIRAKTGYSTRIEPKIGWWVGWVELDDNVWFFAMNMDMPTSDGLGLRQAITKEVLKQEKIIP

[11] = target: AmpC (UniProt P24735); experiment: as above
[12] = test system: Escherichia coli expressing IMP-1; experiment: Antibacterial activity in combination with meropenem (MIC), clinically isolated strains; format: cell-based; conditions: clinical isolate EC1541 (blaIMP-1), compound final concentration 10 μM
[13] = test system: Klebsiella pneumoniae expressing KPC-2; experiment: as above; conditions: compound final concentration 10 μM
[14] = read-out: Inhibitory activity on MBL NDM-1 (IC50 class)
[15] = read-out: inhibitory activity at a nanomolar-level on NDM-1
[16] = read-out: Inhibitory activity on MBL NDM-5 (IC50 class)
[17] = read-out: inhibitory activity at a nanomolar-level on NDM-5
[18] = read-out: Inhibitory activity on MBL IMP-1 (IC50 class)
[19] = VIM-1 and/or VIM-2, read-out: inhibitory activity at a nanomolar-level on VIM-1 and/or VIM-2
[20] = read-out: Inhibitory activity on MBL VIM-1 (IC50 class)
[21] = read-out: Inhibitory activity on MBL VIM-2 (IC50 class)
[22] = read-out: Inhibitory activity on SBL KPC-2 (IC50 class)
[23] = read-out: Inhibitory activity on SBL SHV-12 (IC50 class)
[24] = read-out: Inhibitory activity on SBL CTX-M-14 (IC50 class)
[25] = read-out: Inhibitory activity on SBL OXA-48 (IC50 class)
[26] = read-out: Inhibitory activity on SBL AmpC (IC50 class)

Chain of NDM-5 (C7C422 29-270 V88L/M154L): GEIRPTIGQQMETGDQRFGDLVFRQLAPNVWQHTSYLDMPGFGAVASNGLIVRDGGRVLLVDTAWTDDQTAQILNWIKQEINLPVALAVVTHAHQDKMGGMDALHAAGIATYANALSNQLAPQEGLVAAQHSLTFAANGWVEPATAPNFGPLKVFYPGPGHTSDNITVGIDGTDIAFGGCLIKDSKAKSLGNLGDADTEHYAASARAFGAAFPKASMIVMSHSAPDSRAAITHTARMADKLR
Chain of NDM-1 (C7C422 29-270 limits assumed): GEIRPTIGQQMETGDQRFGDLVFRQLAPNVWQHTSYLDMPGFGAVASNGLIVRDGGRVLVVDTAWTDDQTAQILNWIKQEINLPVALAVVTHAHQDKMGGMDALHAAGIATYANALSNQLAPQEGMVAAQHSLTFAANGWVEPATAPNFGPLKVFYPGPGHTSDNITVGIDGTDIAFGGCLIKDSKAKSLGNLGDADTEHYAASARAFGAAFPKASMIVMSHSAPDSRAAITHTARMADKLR
Chain of IMP-1 (P52699 19-246 limits assumed): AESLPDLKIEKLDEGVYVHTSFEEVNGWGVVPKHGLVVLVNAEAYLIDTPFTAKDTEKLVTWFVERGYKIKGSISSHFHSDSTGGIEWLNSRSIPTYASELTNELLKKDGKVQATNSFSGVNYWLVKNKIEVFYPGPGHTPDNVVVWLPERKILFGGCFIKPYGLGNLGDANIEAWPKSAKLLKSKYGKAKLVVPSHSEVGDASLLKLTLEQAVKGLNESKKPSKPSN

SMILES | IC50 [1, 14] [nM] | IC50 [1, 15] [nM] | IC50 [2, 16] [nM] | IC50 [2, 17] [nM] | IC50 [3, 18] [nM] | IC50 [4, 19] [nM] | IC50 [4, 20] [nM] | IC50 [5, 21] [nM] | inhibitory activity on KPC-2 compared to avibactam [6] | IC50 [6, 22] [nM] | inhibitory activity on TEM-1 compared to avibactam [7] | IC50 [7] [nM] | inhibitory activity on SHV-12 compared to control drugs [8] | IC50 [8, 23] [nM] | inhibitory activity on CTX-M-14 compared to avibactam [9] | IC50 [9, 24] [nM] | inhibitory activity on OXA-48 compared to avibactam [10] | IC50 [10, 25] [nM] | IC50 [11, 26] [nM] | further results
NC(=O)N1Cc2cn(Cc3ccc4c(c3C(=O)O)OB(O)CC4)nc2C1 [Compound 73] | 10 to 1000 | < 1000 | 10 to 1000 | < 1000 | 10 to 1000 | < 1000 | 10 to 1000 | 10 to 1000 | better or comparable | < 10 | better or comparable | < 10 | comparable to avibactam and tazobactam and superior to taniborbactam | < 10 | better or comparable | 10 to 1000 | better or comparable | 10 to 1000 | 10 to 1000 | –
O=C(O)c1c(CNc2nncs2)ccc2c1OB(O)CC2 [Comparative example 1 compound 64, reference compound] | 1000 to 100000 | – | 1000 to 100000 | – | > 100000 | – | 1000 to 100000 | 1000 to 100000 | – | 10 to 1000 | – | – | – | 1000 to 100000 | – | 10 to 1000 | – | 10 to 1000 | 1000 to 100000 | IC50 [1]: 3230 nM; IC50 ([2]; unit inferred, read-out: NDM-5, number in parentheses under the class symbol): 3230 nM; IC50 ([3]; unit inferred, read-out: IMP-1, number in parentheses under the class symbol): 103000 nM; IC50 ([4]; unit inferred, read-out: VIM-1, number in parentheses under the class symbol): 5500 nM; IC50 ([5]; unit inferred, read-out: VIM-2, number in parentheses under the class symbol): 8100 nM; IC50 ([6]; unit inferred, read-out: KPC-2, number in parentheses under the class symbol): 65 nM; IC50 ([8]; unit inferred, read-out: SHV-12, number in parentheses under the class symbol): 1580 nM; IC50 ([9]; unit inferred, read-out: CTX-M-14, number in parentheses under the class symbol): 63 nM; IC50 ([10]; unit inferred, read-out: OXA-48, number in parentheses under the class symbol): 154 nM; IC50 ([11]; read-out: AmpC, number in parentheses under the class symbol, unit inferred): 7500 nM
CN1Cc2cn(Cc3ccc4c(c3C(=O)O)OB(O)CC4)nc2C1 [Compound 74] | 10 to 1000 | < 1000 | 10 to 1000 | < 1000 | 10 to 1000 | < 1000 | 10 to 1000 | 10 to 1000 | better or comparable | < 10 | better or comparable | < 10 | comparable to avibactam and tazobactam and superior to taniborbactam | < 10 | better or comparable | 10 to 1000 | better or comparable | 10 to 1000 | 10 to 1000 | –
NCCN[C@H]1CC[C@H](CC(=O)N[C@H]2Cc3cccc(C(=O)O)c3OB2O)CC1 [Taniborbactam, reference compound] | – | – | – | – | 1000 to 100000 | – | 10 to 1000 | < 10 | – | 10 to 1000 | – | – | – | – | – | 10 to 1000 | – | 10 to 1000 | – | MIC value of compounds in combination with meropenem, EC1541 (blaIMP-1) [12]: ++++ (++++ indicates MIC < 4 μg/ml); MIC value of compounds in combination with meropenem, KP090344 (blaKPC-2) ([13]; clinical isolate KP090344 (blaKPC-2)): ++++ (++++ indicates MIC < 4 μg/ml); MIC value of compounds in combination with meropenem, KP140508 (blaKPC-2) ([13]; clinical isolate KP140508 (blaKPC-2)): ++++ (++++ indicates MIC < 4 μg/ml); MIC value of compounds in combination with meropenem, KP140912 (blaKPC-2) ([13]; clinical isolate KP140912 (blaKPC-2)): ++++ (++++ indicates MIC < 4 μg/ml)

Reference: patent US20250205259A1, “CLASS OF 7-((FIVE-MEMBERED HETEROCYCLIC)METHYL)-8-CARBOXYLIC ACID-BENZO CYCLIC BORATE DERIVATIVES AND USES THEREOF” (priority 2022, published 2025)
